Experimental data as given in PubChem BioAssay AID296 (DTP/NCI, 2004).
Several values for one entry are separate records, joined by “and”; a condition that tells them apart may be missing. Equal entries are not always repeated. Records with an inconclusive call do not appear.

Test system: MX-1 breast xenograft, nude mice, tumor weight T/C
Assay: NCI In Vivo Anticancer Drug Screen. Data for tumor model Human Mammary Carcinoma MX-1 Xenograft (intrarenal inoculation) in NU/NU Swiss (nude) mice
Details: endpoint: mean tumor weight change, higher = larger tumour
Summary of the method: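 Antitumour effect measured in vivo against vehicle controls, expressed as T/C.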

[1] = dose: 20.0 mg/kg/injection, schedule: Q04DX003 (sc), vehicle: saline
[2] = dose: 300.0 mg/kg/injection, schedule: Q04DX003 (sc), vehicle: saline
[3] = dose: 600.0 mg/kg/injection, schedule: Q04DX003 (sc), vehicle: saline
[4] = dose: 800.0 mg/kg/injection, schedule: Q04DX003 (sc), vehicle: saline
[5] = dose: 1200.0 mg/kg/injection, schedule: Q04DX003 (sc), vehicle: saline
[6] = dose: 1600.0 mg/kg/injection, schedule: Q04DX003 (sc), vehicle: saline
[7] = dose: 0.5 mg/kg/injection, schedule: Q01DX010 (sc), vehicle: saline
[8] = dose: 12.5 mg/kg/injection, schedule: Q01DX010 (sc), vehicle: saline
[9] = dose: 25.0 mg/kg/injection, schedule: Q01DX010 (sc), vehicle: saline
[10] = dose: 50.0 mg/kg/injection, schedule: Q01DX010 (sc), vehicle: saline

Nc1ncn(C2OC(CO)C(O)C2O)c(=O)n1 (stereo not given)
T/C (dose: 0.38 mg/kg/injection, schedule: Q01DX010 (sc), vehicle: saline): 69 % of control | T/C (dose: 0.75 mg/kg/injection, schedule: Q01DX010 (sc), vehicle: saline): 58 % of control and 68 % of control | T/C (dose: 1.5 mg/kg/injection, schedule: Q01DX010 (sc), vehicle: saline): 25 % of control | T/C (dose: 2.5 mg/kg/injection, schedule: Q04DX003 (sc), vehicle: saline): 50 % of control | T/C [1]: 6 % of control and 14 % of control | T/C (dose: 150.0 mg/kg/injection, schedule: Q04DX003 (sc), vehicle: saline): 8 % of control | T/C (dose: 200.0 mg/kg/injection, schedule: Q04DX003 (sc), vehicle: saline): 52 % of control | T/C (dose: 200.0 mg/kg/injection, schedule: Q04DX003 (sc), vehicle: suspension in saline): 5 % of control and 7 % of control | T/C [2]: 7 % of control | T/C (dose: 400.0 mg/kg/injection, schedule: Q04DX003 (sc), vehicle: saline): 15 % of control | T/C [3]: 2 % of control | T/C [4]: 5 % of control | T/C [5]: -29 % of control | T/C [6]: 2 % of control | T/C (dose: 1600.0 mg/kg/injection, schedule: Q04DX003 (sc), vehicle: suspension in saline): 15 % of control

O=NN(CCCl)C(=O)NC1OC(CO)C(O)C(O)C1O (stereo not given)
T/C (dose: 5.0 mg/kg/injection, schedule: Q04DX003 (sc), vehicle: saline): 91 % of control | T/C (dose: 10.0 mg/kg/injection, schedule: Q04DX003 (sc), vehicle: saline): 69 % of control | T/C [1]: 40 % of control

Cc1cn(C2CC(O)C(CO)O2)c(=O)[nH]c1=O (stereo not given)
T/C [4]: 105 % of control | T/C [6]: 89 % of control | T/C (dose: 3200.0 mg/kg/injection, schedule: Q04DX003 (sc), vehicle: saline): 50 % of control | T/C (dose: 6400.0 mg/kg/injection, schedule: Q04DX003 (sc), vehicle: saline): 62 % of control

COc1cc2c(c(OC)c1OC)-c1ccc(OC)c(=O)cc1[C@@H](NC(C)=O)CC2
T/C (dose: 0.25 mg/kg/injection, schedule: Q01DX010 (sc), vehicle: saline): 94 % of control | T/C [7]: 30 % of control

COC(=O)C[C@](O)(CCCC(C)(C)O)C(=O)O[C@@H]1C(OC)=C[C@]23CCCN2CCc2cc4c(cc2[C@H]13)OCO4
T/C [7]: 177 % of control | T/C (dose: 1.0 mg/kg/injection, schedule: Q01DX010 (sc), vehicle: saline): 110 % of control

C=CCc1cn(C2CC(O)C(CO)O2)c(=O)[nH]c1=O (stereo not given)
T/C [2]: 121 % of control | T/C [3]: 114 % of control | T/C [5]: 93 % of control | T/C (dose: 2400.0 mg/kg/injection, schedule: Q04DX003 (sc), vehicle: saline): 97 % of control

BrC1c2cccc3cccc(c23)C1Br (stereo not given)
T/C (dose: 600.0 mg/kg/injection, schedule: Q04DX003 (sc), vehicle: saline with Tween-80): 202 % of control | T/C (dose: 2400.0 mg/kg/injection, schedule: Q04DX003 (sc), vehicle: saline with Tween-80): 113 % of control

COc1cc(NS(C)(=O)=O)ccc1Nc1c2ccccc2nc2ccccc12
T/C (dose: 0.75 mg/kg/injection, schedule: Q01DX010 (sc), vehicle: lactic acid): 124 % of control | T/C (dose: 3.75 mg/kg/injection, schedule: Q01DX010 (sc), vehicle: clinical formulation): 54 % of control

C1OC1C1CO1 (stereo not given)
T/C [8]: 4 % of control and 28 % of control | T/C (dose: 12.5 mg/kg/injection, schedule: Q04DX003 (sc), vehicle: suspension in saline): 63 % of control and 74 % of control | T/C [9]: -53 % of control and -47 % of control | T/C (dose: 25.0 mg/kg/injection, schedule: Q04DX003 (sc), vehicle: suspension in saline): 37 % of control and 44 % of control | T/C [10]: -90 % of control and -85 % of control | T/C (dose: 50.0 mg/kg/injection, schedule: Q04DX003 (sc), vehicle: suspension in saline): 1 % of control and 4 % of control

CC1(C)N=C(N)N=C(N)N1c1ccc(CCCCc2ccc(S(=O)(=O)F)cc2Cl)c(Cl)c1
T/C (dose: 12.5 mg/kg/injection, schedule: Q01DX010 (sc), vehicle: suspension in saline): 87 % of control | T/C (dose: 25.0 mg/kg/injection, schedule: Q01DX010 (sc), vehicle: suspension in saline): 77 % of control | T/C (dose: 50.0 mg/kg/injection, schedule: Q01DX010 (sc), vehicle: suspension in saline): 57 % of control

CS(=O)(=O)OCCN(CCOS(C)(=O)=O)c1ccc(C=O)cc1
T/C [9]: -67 % of control and -51 % of control

COc1ccc(C(=O)/C(Br)=C/C(=O)O)cc1
T/C [8]: 110 % of control | T/C [9]: 63 % of control | T/C [10]: 98 % of control

NC(=O)Oc1cccc(OC(N)=O)c1
T/C (dose: 300.0 mg/kg/injection, schedule: Q04DX003 (sc), vehicle: water): 68 % of control | T/C (dose: 600.0 mg/kg/injection, schedule: Q04DX003 (sc), vehicle: water): 101 % of control | T/C (dose: 1200.0 mg/kg/injection, schedule: Q04DX003 (sc), vehicle: water): 53 % of control
